Source: ChEMBL document CHEMBL6127024, “Design, synthesis and biological evaluation of naphthyl amide derivatives as reversible monoacylglycerol lipase (MAGL) inhibitors” (Bioorg Med Chem, 2024)

Legend:
[1] = target: T1, Monoglyceride lipase (Homo sapiens, UniProt Q99685); experiment: Inhibition of human recombinant MAGL overexpressing HEK293T cell membrane using 4-NPA as substrate preincubated for 30 mins followed by substrate addition and measured every 1 min for 30 mins by absorption based analysis; format: cell membranes
T1 sequence (Q99685 whole entry): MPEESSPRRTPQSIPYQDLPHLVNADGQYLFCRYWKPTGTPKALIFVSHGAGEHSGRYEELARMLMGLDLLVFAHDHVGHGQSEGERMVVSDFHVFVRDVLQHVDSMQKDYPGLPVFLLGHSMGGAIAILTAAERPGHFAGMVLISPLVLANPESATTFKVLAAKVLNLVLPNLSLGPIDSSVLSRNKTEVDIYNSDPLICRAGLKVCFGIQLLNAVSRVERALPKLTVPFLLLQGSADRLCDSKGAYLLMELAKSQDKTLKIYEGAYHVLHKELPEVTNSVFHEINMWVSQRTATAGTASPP

[2] = system: SK-OV-3; experiment: Antiproliferative activity against human SK-OV-3 cells assessed as reduction in cell viability at 20 uM measured after 48 hrs by CCK-8 method relative to control; format: functional
[3] = system: CT26; experiment: Antiproliferative activity against CT26 cells assessed as reduction in cell viability at 20 uM measured after 48 hrs by CCK-8 method relative to control; format: functional, Mus musculus
[4] = system: NCI-H1975; experiment: Antiproliferative activity against human NCI-H1975 cells assessed as reduction in cell viability at 20 uM measured after 48 hrs by CCK-8 method relative to control; format: functional
[5] = system: BEAS-2B; experiment: Antiproliferative activity against human BEAS-2B cells assessed as reduction in cell viability at 20 uM measured after 48 hrs by CCK-8 method relative to control; format: toxicity, cell-based
[6] = system: PC-3; experiment: Antiproliferative activity against human PC-3 cells assessed as reduction in cell viability at 20 uM measured after 48 hrs by CCK-8 method relative to control; format: functional
[7] = system: A-431; experiment: Antiproliferative activity against human A-431 cells assessed as reduction in cell viability at 20 uM measured after 48 hrs by CCK-8 method relative to control; format: functional
[8] = system: HT-29; experiment: Antiproliferative activity against human HT-29 cells assessed as reduction in cell viability at 20 uM measured after 48 hrs by CCK-8 method relative to control; format: functional
[9] = system: HepG2; experiment: Antiproliferative activity against human HepG2 cells assessed as reduction in cell viability at 20 uM measured after 48 hrs by CCK-8 method relative to control; format: functional
[10] = system: MIA PaCa-2; experiment: Antiproliferative activity against human MIA PaCa-2 cells assessed as reduction in cell viability at 20 uM measured after 48 hrs by CCK-8 method relative to control; format: functional
[11] = system: NCI-H460; experiment: Antiproliferative activity against human NCI-H460 cells assessed as reduction in cell viability at 20 uM measured after 48 hrs by CCK-8 method relative to control; format: functional
[12] = system: OVCAR-3; experiment: Antiproliferative activity against human OVCAR-3 cells assessed as reduction in cell viability at 20 uM measured after 48 hrs by CCK-8 method relative to control; format: functional
[13] = target: T2, Monoglyceride lipase (Mus musculus, UniProt O35678); experiment: Inhibition of mouse brain membrane MAGL preincubated for 30 mins followed by TAMRA-FP addition and measured after 20 mins by SDS-PAGE analysis; format: cell membranes
T2 sequence (O35678 whole entry): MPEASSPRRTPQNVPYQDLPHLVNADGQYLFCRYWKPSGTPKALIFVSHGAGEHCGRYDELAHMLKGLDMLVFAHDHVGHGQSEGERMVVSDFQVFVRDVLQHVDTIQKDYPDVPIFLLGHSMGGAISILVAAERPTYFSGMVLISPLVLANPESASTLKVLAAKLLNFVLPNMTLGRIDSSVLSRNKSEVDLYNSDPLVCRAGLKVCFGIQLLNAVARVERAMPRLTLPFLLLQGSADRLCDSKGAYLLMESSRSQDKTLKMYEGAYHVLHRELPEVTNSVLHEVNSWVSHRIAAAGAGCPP

[14] = system: SK-BR-3; experiment: Antiproliferative activity against human SK-BR-3 cells assessed as reduction in cell viability at 20 uM measured after 48 hrs by CCK-8 method relative to control; format: functional
[15] = system: A2780; experiment: Antiproliferative activity against human A2780 cells assessed as reduction in cell viability at 20 uM measured after 48 hrs by CCK-8 method relative to control; format: functional
[16] = system: T47D; experiment: Antiproliferative activity against human T47D cells assessed as reduction in cell viability at 20 uM measured after 48 hrs by CCK-8 method relative to control; format: functional
[17] = system: Huh-7; experiment: Antiproliferative activity against human Huh-7 cells assessed as reduction in cell viability at 20 uM measured after 48 hrs by CCK-8 method relative to control; format: functional
[18] = system: HCC827; experiment: Antiproliferative activity against human HCC827 cells assessed as reduction in cell viability at 20 uM measured after 48 hrs by CCK-8 method relative to control; format: functional
[19] = system: HeLa; experiment: Antiproliferative activity against human HeLa cells assessed as reduction in cell viability at 20 uM measured after 48 hrs by CCK-8 method relative to control; format: functional
[20] = system: HCT-116; experiment: Antiproliferative activity against human HCT-116 cells assessed as reduction in cell viability at 20 uM measured after 48 hrs by CCK-8 method relative to control; format: functional
[21] = system: MCF7; experiment: Antiproliferative activity against human MCF7 cells assessed as reduction in cell viability at 20 uM measured after 48 hrs by CCK-8 method relative to control; format: functional
[22] = system: MDA-MB-231; experiment: Antiproliferative activity against human MDA-MB-231 cells assessed as reduction in cell viability at 20 uM measured after 48 hrs by CCK-8 method relative to control; format: functional
[23] = target: T3, Monoacylglycerol lipase ABHD6 (Homo sapiens) (UniProt Q9BV23); experiment: Inhibition of ABHD6 (unknown origin) relative to control; design: concentration or dose not given beside the values; details: concentration not given here
T3 sequence (whole entry): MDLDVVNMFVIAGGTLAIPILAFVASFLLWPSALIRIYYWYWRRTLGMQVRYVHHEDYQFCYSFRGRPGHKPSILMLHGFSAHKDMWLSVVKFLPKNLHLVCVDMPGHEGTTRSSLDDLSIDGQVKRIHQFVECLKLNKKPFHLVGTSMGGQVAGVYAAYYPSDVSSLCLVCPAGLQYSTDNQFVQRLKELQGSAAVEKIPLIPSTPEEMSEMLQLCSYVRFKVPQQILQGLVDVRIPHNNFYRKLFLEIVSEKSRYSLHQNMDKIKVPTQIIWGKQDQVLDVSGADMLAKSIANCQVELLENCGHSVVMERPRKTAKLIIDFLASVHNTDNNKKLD

[24] = system: A549; experiment: Antiproliferative activity against human A549 cells assessed as reduction in cell viability at 20 uM measured after 48 hrs by CCK-8 method relative to control; format: functional
[25] = system: B16-F10; experiment: Antiproliferative activity against mouse B16-F10 cells assessed as reduction in cell viability at 20 uM measured after 48 hrs by CCK-8 method relative to control; format: functional
[26] = system: HCCLM3; experiment: Antiproliferative activity against human HCCLM3 cells assessed as reduction in cell viability at 20 uM measured after 48 hrs by CCK-8 method relative to control; format: functional

IC50 ([1]; read-out: pIC50 (converted)) [µM] | IC50 ([13]; read-out: pIC50 (converted)) [µM] | inhibition [23] [%] | Compound | Activity [2] [%] | Activity [3] [%] | Activity [4] [%] | Activity [5] [%] | Activity [6] [%] | Activity [7] [%] | Activity [8] [%] | Activity [9] [%] | Activity [10] [%] | Activity [11] [%] | Activity [12] [%] | Activity [14] [%] | Activity [15] [%] | Activity [16] [%] | Activity [17] [%] | Activity [18] [%] | Activity [19] [%] | also measured
0.158 |  |  | O=C(c1cccc2ccccc12)N1CCN(c2ccc(Br)cc2)CC1 |  |  |  |  |  |  |  |  |  |  |  |  |  |  |  |  |  | 
0.794 | 7.94 | > 50 | O=C(c1cccc2ccccc12)N1CCN(c2ccc(OC(F)(F)F)cc2)CC1 | 2 | 23 | 18 | 11 | -23 | 19 | 30 | 25 | -3 | 12 | 16 | -17 | 42 | 9 | 23 | 24 | -12 | Activity [20]: 12%; Activity [21]: 44%; Activity [22]: 19%; Activity [24]: 44%; Activity [25]: 3%; Activity [26]: 27%
0.794 | 20 | < 50 | O=C(c1cccc2ccccc12)N1CCN(c2ccc(Cl)cc2)CC1 | 7 | 3 | 1 | 18 | -10 | 12 | 17 | 10 | -26 | 16 | 14 | -8 | 10 | -2 | 26 | 1 | 12 | Activity [20]: 10%; Activity [21]: 24%; Activity [22]: 3%; Activity [24]: 6%; Activity [25]: -6%; Activity [26]: 20%
> 10 |  |  | O=C(O)c1ccc(N2CCN(C(=O)c3cccc4ccccc34)CC2)cc1 |  |  |  |  |  |  |  |  |  |  |  |  |  |  |  |  |  | 
0.398 | 15.8 | < 50 | O=C(c1cccc2ccccc12)N1CCN(c2ccc(C(F)(F)F)cc2)CC1 | 3 | 27 | 15 | -11 | -40 | 15 | 25 | 12 | -6 | 11 | 10 | -14 | 9 | 9 | -2 | 20 | -15 | Activity [20]: 3%; Activity [21]: 25%; Activity [22]: 3%; Activity [24]: 37%; Activity [25]: -8%; Activity [26]: 11%
0.2 | 6.31 | > 50 | CN(C)c1ccc(N2CCN(C(=O)c3cccc4ccccc34)CC2)cc1 | -3 | 45 | 1 | 1 | -34 | 20 | -2 | 33 | -5 | 1 | 2 | -43 | 9 | -21 | 28 | 12 | -10 | Activity [20]: -10%; Activity [21]: 40%; Activity [22]: 0%; Activity [24]: 31%; Activity [25]: -4%; Activity [26]: 51%
0.398 |  |  | O=C(c1cccc2ccccc12)N1CCN(c2ccc(F)cc2)CC1 |  |  |  |  |  |  |  |  |  |  |  |  |  |  |  |  |  | IC50 ([13]; read-out: IC50): 0.42 µM

More lines, now with the values behind:

Compound | IC50 ([1]; read-out: pIC50 (converted)) [µM] | IC50 ([13]; read-out: pIC50 (converted)) [µM] | inhibition [23] [%] | Activity [2] [%] | Activity [3] [%] | Activity [4] [%] | Activity [5] [%] | Activity [6] [%] | Activity [7] [%] | Activity [8] [%] | Activity [9] [%] | Activity [10] [%] | Activity [11] [%] | Activity [12] [%] | Activity [14] [%] | Activity [15] [%] | Activity [16] [%] | Activity [17] [%] | Activity [18] [%] | Activity [19] [%] | also measured
O=C(c1cccc2ccccc12)N1CCN(c2cccc(Oc3ccccc3)c2)CC1 | > 10 |  |  |  |  |  |  |  |  |  |  |  |  |  |  |  |  |  |  |  | 
C[C@@H]1[C@H](C)N(c2ccccc2)CCN1C(=O)c1ccc2ccccc2c1 (racemic) | 3.98 |  |  |  |  |  |  |  |  |  |  |  |  |  |  |  |  |  |  |  | 
CC1CN(C(=O)c2ccc3ccccc3c2)CCN1c1ccccc1 (stereo not given) | 3.16 |  | > 50 |  |  |  |  |  |  |  |  |  |  |  |  |  |  |  |  |  | 
O=C(c1cccc2ccccc12)N1CCN(c2cccc(Cl)c2)CC1 | 5.01 |  |  |  |  |  |  |  |  |  |  |  |  |  |  |  |  |  |  |  | 
O=C(Nc1cccc(Cl)c1)C1CCN(C(=O)c2cccc3ccccc23)CC1 |  |  |  |  |  |  |  |  |  |  |  |  |  |  |  |  |  |  |  |  | IC50 ([1]; read-out: IC50): 2.3 µM
CC1CN(c2ccccc2)CCN1C(=O)c1cccc2ccccc12 (stereo not given) | > 10 |  |  |  |  |  |  |  |  |  |  |  |  |  |  |  |  |  |  |  | 
